# Measured values as given in patent US5589506A, “Stilbene derivative and stilbene analog derivative, and use thereof” (Morinaga Milk Industry Co., Ltd., priority 1993, dated 1996).
# Like-named read-outs stand apart in the source and are kept apart here.
# Legend:
# [1] = target: T1, 12-lipoxygenase (Rattus norvegicus, UniProt F1LQ70); experiment: 12-lipoxygenase inhibition assay (rat platelet enzyme solution); format: biochemical, Sprague Dawley male rat
# T1 construct: The pelleted platelets were rinsed twice with a washing buffer; from tissue; host or cells: platelets of Sprague Dawley male rat (sonicate, 100,000 x g supernatant)
# T1 sequence (F1LQ70 1-663): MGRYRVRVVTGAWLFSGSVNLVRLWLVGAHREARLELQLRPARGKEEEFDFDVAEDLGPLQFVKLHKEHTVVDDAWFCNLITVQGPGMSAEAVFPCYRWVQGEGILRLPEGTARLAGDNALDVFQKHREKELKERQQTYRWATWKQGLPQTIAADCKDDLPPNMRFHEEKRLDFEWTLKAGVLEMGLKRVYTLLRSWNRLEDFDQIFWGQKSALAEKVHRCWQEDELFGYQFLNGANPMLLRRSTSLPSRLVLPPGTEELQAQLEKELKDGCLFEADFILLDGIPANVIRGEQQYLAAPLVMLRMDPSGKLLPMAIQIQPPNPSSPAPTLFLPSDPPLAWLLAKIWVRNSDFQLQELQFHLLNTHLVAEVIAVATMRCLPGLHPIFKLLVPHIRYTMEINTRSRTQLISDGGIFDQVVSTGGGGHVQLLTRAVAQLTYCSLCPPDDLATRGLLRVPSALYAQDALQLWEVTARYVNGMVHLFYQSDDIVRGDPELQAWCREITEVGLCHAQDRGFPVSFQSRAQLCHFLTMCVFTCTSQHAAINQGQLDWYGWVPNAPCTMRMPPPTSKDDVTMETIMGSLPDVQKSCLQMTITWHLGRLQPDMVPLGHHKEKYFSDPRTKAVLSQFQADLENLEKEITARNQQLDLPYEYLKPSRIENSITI
# Protocol: The test was performed to examine inhibitory effect of various compounds on the 12-lipoxyganase activity.
# 1) Preparation of Enzyme Solution
# A Sprague Dawley male rat was anesthetized with ether and bled from abdominal aorta using a syringe filled with about one-tenth volume of 3.8% sodium citrate. Blood was centrifuged at 180×g for 15 minutes at room temperature to pellet sanguineous platelet blood plasma. The resultant supernatant was again centrifuged at 1800×g for 10 minutes at 4° C. The pelleted platelets were rinsed twice with a washing buffer (50 mM Tris-hydrochloric acid buffer containing 154 mM sodium chloride and 2 mM EDTA, pH: 7.4). The platelets were then suspended in one-twentieth volume of a resuspension buffer (50 mM Tris-hydrochloric acid buffer containing 154 mM sodium chloride and 5.5 mM glucose, pH: 7.4). The platelets were then sonicated at 4° C. and centrifuged at 100,000×g for 30 minutes to obtain a supernatant as a 12-lipoxgenaseenzyme solution.
# 2) Procedure for 12-lipoxgenase inhibition assay
# The enzyme solution described above was diluted with the resuspension buffer above mentioned to prepare an assay solution so as to include about 2 mU/ml of 12-lipoxygenase. […] The resultant mixture was incubated at 37° C. for 5 minutes. Subsequently, 3 μl of a 2.5 mM arachidonic acid solution in ethanol was added to incubate with for another 5 minutes at 37° C., then the reaction was ceased by the addition of 600 μl of methanol. After being centrifuged at 10,000×g for 5 minutes, 12-hydroxyeicosatetraenoic acid recovered in the supernatant was separated with a reverse phase high-performance liquid chromatography equipped with a […] the activity of 12 lipoxygenase.
# The enzyme solution was prepared according to the same manner as in Test Example 1.
# It was prepared according to the same procedure as in Test Example 1.
# Measurement was performed according to the same procedure as in Test Example 1.
# The measurement was performed according to the same procedure as in Test Example 1.
# [2] = target: T2, 5-lipoxygenase (Rattus norvegicus, UniProt P12527); experiment: 5-lipoxygenase inhibition assay (rat basophilic leukemia cell RBL-1 enzyme solution); format: biochemical; settings: Table 3; read-out: IC50 values of 5-lipoxygenase (mole)
# T2 construct: Cultured cells were collected and washed twice; host or cells: RBL-1 rat basophilic leukemia cells (sonicate, 10,000 x g supernatant)
# T2 sequence (P12527 1-673): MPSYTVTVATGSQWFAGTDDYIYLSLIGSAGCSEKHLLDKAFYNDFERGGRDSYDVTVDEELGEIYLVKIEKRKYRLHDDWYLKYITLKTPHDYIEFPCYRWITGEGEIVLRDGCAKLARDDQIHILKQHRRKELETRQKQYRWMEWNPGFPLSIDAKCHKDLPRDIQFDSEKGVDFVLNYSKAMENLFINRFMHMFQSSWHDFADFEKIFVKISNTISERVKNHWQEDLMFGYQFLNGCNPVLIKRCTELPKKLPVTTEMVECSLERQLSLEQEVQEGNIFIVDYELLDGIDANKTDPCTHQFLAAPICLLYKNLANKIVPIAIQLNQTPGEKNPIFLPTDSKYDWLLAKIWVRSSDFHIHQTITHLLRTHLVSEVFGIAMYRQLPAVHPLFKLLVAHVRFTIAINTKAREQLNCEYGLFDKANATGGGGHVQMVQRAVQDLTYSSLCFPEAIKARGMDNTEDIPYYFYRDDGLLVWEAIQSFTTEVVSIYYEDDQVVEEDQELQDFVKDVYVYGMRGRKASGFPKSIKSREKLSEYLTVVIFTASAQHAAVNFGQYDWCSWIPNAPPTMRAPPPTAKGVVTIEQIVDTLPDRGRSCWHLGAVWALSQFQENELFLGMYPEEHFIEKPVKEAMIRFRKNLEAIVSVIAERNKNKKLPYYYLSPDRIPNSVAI
# Protocol: The test was carried out to examine the selectivity toward 12-lipoxgenase of the compounds of the first embodiment in the present invention.
# i) Preparation of 5-lipoxgenase enzyme solution
# Rat basophilic leukemia cells (RBL-1, ATCC CRL1378) were cultured in Dulbecco modified Eagle's medium containing 10% new-born bovine serum.
# Cultured cells were collected and washed twice with a 50 mM Tris-buffered saline (containing 154 mM sodium chloride, pH: 7.4, hereinafter described as TBS). The cell suspension (4×10^7 cells/ml) was then sonicated and centrifuged at 10,000×g for 10 minutes.
# The resultant supernatant was used to prepare an assay solution.
# i) Procedure for 5-lipoxgenase inhibition assay
# To an aliquot (15 μl) of the enzyme solution (40 mU/ml equivalent) was added 185 μl of TBS, 50 μl of a 2 mM adenosine triphosphate in TBS, 50 μl of a 12 mM calcium chloride in TBS, 1 μl of a 3 mM indomethacin in ethanol solution, 1 μl of an aqueous 300 mM reduced glutathione solution, and 3 μl of varied concentrated test compounds solution in ethanol. The resultant mixture was incubated at 37° C. for 5 minutes. Subsequently, 3 μl of a 2.5 mM arachidonic acid solution in ethanol was added to incubate the mixture for 2 minutes at 37° C. The reaction was ceased by the addition of 600 μl of methanol After being centrifuged at 10,000×g for 5 minutes, 5-hydroxyeicosatetraenoic acid recovered in the supernatant was separated with a reverse phase high-performance liquid chromatography equipped with a C-18 column and measured the absorption of diene at 234 nm to quantify the activity of the enzyme. […]
# The enzyme activities of the compounds of the present invention prepared according to the same procedure as in Examples 54-58 to be described later and baicalein as sample substances at varied concentrations were measured according to the above-mentioned method, and mole concentrations showing 50% 12-lipoxgenase and 5-lipoxgenase inhibition ratios (hereinafter may be described as IC50 values) were obtained from the measured values of the sample substances.
# [3] = Table 3, read-out: IC50 values of 12-lipoxygenase (mole)
# [4] = Table 12, deacylated compounds, read-out: 12-Lipoxygenase inhibitory effect of deacylated compounds (IC50 values)
SMILES,"IC50 [1, 3] [nM]",IC50 [2] [nM],"IC50 [1, 4] [nM]"
N#CC(=Cc1ccc(O)c(O)c1)c1ccc(Br)cc1 [Ex. 4],3.6,15,–
"N#CC(=Cc1ccc(O)c(O)c1)c1ccc(I)cc1 [Ex. 5, α-cyano-4-iodo-3',4'-dihydroxystilbene]",5.4,20,5.4
Cc1ccc(C(C#N)=Cc2ccc(O)c(O)c2)cc1 [Ex. 6],4.5,48,–
N#CC(=Cc1ccc(O)c(O)c1)c1ccccc1 [Ex. 9],15,110,–
CCc1ccc(C(C#N)=Cc2ccc(O)c(O)c2)cc1 [Ex. 11],5.8,46,–
"N#CC(=Cc1ccc(O)c(O)c1)c1cc(Br)cs1 [Ex. 13, α-(3,4-dihydroxybenzylidene)-4-bromothiophene-2-acetonitrile]",3,36,3
N#CC(=Cc1ccc(O)c(O)c1)c1ccc(Br)s1 [Ex. 14],3.6,26,–
"N#CC(=Cc1cc(O)c(O)c(O)c1)c1ccc(Cl)cc1 [Ex. 15, α-cyano-4-chloro-3',4',5'-trihydroxystilbene]",14,56,–
N#CC(=Cc1ccc(O)c(O)c1)c1ccc(C#N)cc1 [Ex. 16],28,100,–
"N#CC(=Cc1ccc(O)c(O)c1)c1ccc([N+](=O)[O-])cc1 [Ex. 17, α-cyano-4-nitro-3',4'-dihydroxystilbene]",8.8,130,8.8
"N#CC(=Cc1ccccc1)c1ccc(O)c(O)c1 [Ex. 20, α-cyano-3,4-dihydroxystilbene]",17,96,–
"N#CC(=Cc1ccc(F)cc1)c1ccc(O)c(O)c1 [Ex. 21, α-cyano-4'-fluoro-3,4-dihydroxystilbene]",4.8,74,4.8
"N#CC(=Cc1cccc(Cl)c1)c1ccc(O)c(O)c1 [Ex. 22, α-cyano-3'-chloro-3,4-dihydroxystilbene]",5.1,34,5.1
"COc1ccc(C(C#N)=Cc2ccc(O)c(O)c2)cc1 [Formula 55b, α-cyano-4-methoxy-3',4'-dihydroxystilbene]",–,–,6
